From ChEMBL document CHEMBL4346735, “Discovery and pharmacological evaluation of indole derivatives as potent and selective RORγt inverse agonist for multiple autoimmune conditions” (Bioorg Med Chem Lett, 2019)
In brackets after ≈: the same amount, converted by molar mass.

Key:
[1] = target: T1, Nuclear receptor ROR-alpha (Homo sapiens, UniProt P35398); assay: Inhibition of GAL4-DBD fused RORalpha LBD (unknown origin) expressed in HEK293T cells; format: cell-based
T1 sequence (P35398 whole entry): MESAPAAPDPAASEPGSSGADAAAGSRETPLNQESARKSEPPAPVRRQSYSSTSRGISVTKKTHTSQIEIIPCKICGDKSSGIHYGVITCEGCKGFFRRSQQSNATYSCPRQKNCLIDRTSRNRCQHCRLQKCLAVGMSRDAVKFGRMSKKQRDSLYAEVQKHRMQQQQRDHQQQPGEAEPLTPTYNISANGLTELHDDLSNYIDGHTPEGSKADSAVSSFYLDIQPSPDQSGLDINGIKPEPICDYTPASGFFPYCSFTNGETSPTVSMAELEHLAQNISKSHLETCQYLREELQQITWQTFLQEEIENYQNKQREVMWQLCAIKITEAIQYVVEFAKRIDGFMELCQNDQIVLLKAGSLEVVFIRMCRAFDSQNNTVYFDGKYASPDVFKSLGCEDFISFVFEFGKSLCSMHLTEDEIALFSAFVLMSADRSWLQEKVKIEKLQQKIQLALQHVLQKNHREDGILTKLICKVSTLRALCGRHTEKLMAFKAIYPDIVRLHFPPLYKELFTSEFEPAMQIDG

Cytochrome P450 2C9 = Cytochrome P450 2C9 (Homo sapiens, UniProt P11712); assay: Inhibition of CYP2C9 in human liver microsomes using diclofenac as substrate preincubated for 5 mins followed by NADPH addition measured after 10 mins by LC-MS/MS analysis
[2] = Clearance in mouse at 3 mg/kg, iv; format: ADME, organism-based; conditions: in vivo
[3] = Metabolic stability in rat liver microsomes assessed as parent compound remaining at 1 uM preincubated for 5 mins followed by NADPH addition after 30 mins by LC-MS/MS analysis; format: ADME, Microsome; conditions: read-out: Stability
[4] = Metabolic stability in mouse liver microsomes assessed as parent compound remaining at 1 uM preincubated for 5 mins followed by NADPH addition after 30 mins by LC-MS/MS analysis; format: ADME, Microsome; conditions: read-out: Stability
[5] = Cmax in mouse at 10 mg/kg, po; format: ADME, organism-based; design: dose 10 mg/kg, route oral; conditions: in vivo
Cytochrome P450 2D6 = Cytochrome P450 2D6 (Homo sapiens, UniProt P10635); assay: Inhibition of CYP2D6 in human liver microsomes using dextromethorphan as substrate preincubated for 5 mins followed by NADPH addition measured after 10 mins by LC-MS/MS analysis
Cytochrome P450 2C19 = Cytochrome P450 2C19 (Homo sapiens, UniProt P33261); assay: Inhibition of CYP2C19 in human liver microsomes using (S)-mephenytoin as substrate preincubated for 5 mins followed by NADPH addition measured after 40 mins by LC-MS/MS analysis
Cytochrome P450 1A2 = target: T2, Cytochrome P450 1A2 (Homo sapiens, UniProt P05177); assay: Inhibition of CYP1A2 in human liver microsomes using phenacetin as substrate preincubated for 5 mins followed by NADPH addition measured after 10 mins by LC-MS/MS analysis
T2 sequence (P05177 whole entry): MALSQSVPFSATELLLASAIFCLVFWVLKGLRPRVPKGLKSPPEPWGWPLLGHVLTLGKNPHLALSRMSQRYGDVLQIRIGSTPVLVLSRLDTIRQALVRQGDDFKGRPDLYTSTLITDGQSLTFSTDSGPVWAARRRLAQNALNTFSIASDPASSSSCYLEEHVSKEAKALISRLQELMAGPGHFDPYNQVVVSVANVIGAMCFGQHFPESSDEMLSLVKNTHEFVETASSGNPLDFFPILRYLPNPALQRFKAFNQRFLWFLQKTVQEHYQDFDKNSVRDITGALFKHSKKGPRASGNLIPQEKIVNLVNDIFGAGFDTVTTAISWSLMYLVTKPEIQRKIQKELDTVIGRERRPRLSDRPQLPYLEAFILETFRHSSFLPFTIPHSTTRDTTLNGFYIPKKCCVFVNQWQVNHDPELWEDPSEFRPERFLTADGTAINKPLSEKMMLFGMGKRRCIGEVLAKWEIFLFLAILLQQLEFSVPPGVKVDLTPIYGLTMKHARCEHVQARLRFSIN

[6] = Oral bioavailability in mouse at 10 mg/kg; format: ADME, organism-based; conditions: in vivo
[7] = Volume of distribution at steady state in mouse at 3 mg/kg, iv; format: ADME, organism-based; conditions: in vivo, read-out: Vdss
[8] = Half life in mouse at 3 mg/kg, iv; format: ADME, organism-based; conditions: in vivo
[9] = AUC (0 to 24 hrs) in mouse at 10 mg/kg, po; format: ADME, organism-based; design: dose 10 mg/kg, time < 24 hr, route oral; conditions: in vivo
[10] = target: T3, Nuclear receptor ROR-gamma (Homo sapiens, UniProt P51449); assay: Transactivation of recombinant GAL4-DBD fused RORgammat LBD (unknown origin) expressed in HEK293T cells incubated for 18 to 24 hrs by dual-Glo luciferase assay; format: cell-based
T3 sequence (P51449 whole entry): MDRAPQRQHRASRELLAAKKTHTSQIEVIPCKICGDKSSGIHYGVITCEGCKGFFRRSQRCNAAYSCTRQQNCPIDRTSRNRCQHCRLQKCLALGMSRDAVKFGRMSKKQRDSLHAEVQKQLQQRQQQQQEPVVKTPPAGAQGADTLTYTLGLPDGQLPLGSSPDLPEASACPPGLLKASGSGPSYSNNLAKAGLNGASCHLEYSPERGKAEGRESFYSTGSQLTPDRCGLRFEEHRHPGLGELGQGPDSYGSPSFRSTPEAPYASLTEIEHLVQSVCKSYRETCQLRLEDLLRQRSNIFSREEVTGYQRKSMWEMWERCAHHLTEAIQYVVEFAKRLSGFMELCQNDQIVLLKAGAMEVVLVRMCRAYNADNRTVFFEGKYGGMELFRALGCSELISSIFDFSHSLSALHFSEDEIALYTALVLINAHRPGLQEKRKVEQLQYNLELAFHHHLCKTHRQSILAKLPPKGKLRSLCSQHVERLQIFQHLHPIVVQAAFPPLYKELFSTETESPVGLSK

[11] = Metabolic stability in human liver microsomes assessed as parent compound remaining at 1 uM preincubated for 5 mins followed by NADPH addition after 30 mins by LC-MS/MS analysis; format: ADME, Microsome; conditions: read-out: Stability
[12] = Tmax in mouse at 10 mg/kg, po; format: ADME, organism-based; conditions: in vivo
Cytochrome P450 3A4 [13] = target: T4, Cytochrome P450 3A4 (Homo sapiens, UniProt P08684); assay: Inhibition of CYP3A4 in human liver microsomes using testosterone as substrate preincubated for 5 mins followed by NADPH addition measured after 10 mins by LC-MS/MS analysis
[14] = Solubility of the compound at pH 7.4; conditions: buffer
[15] = Solubility of the compound at pH 4; conditions: buffer
[16] = Solubility of the compound at pH 2.1; conditions: buffer
Cytochrome P450 3A4 [17] = target: T4, Cytochrome P450 3A4; assay: Inhibition of CYP3A4 in human liver microsomes using midazolam as substrate preincubated for 5 mins followed by NADPH addition measured after 10 mins by LC-MS/MS analysis
[18] = target: T5, Nuclear receptor ROR-gamma (Mus musculus) (UniProt P51450); assay: Transrepression of RORgammat in Balb/c mouse splenocytes assessed as inhibition of anti-CD3/anti-CD28 stimulated IL-17 gene expression at 30 uM measured after 24 hrs in presence of anti-CD3/anti-CD28; format: cell-based
T5 sequence (whole entry): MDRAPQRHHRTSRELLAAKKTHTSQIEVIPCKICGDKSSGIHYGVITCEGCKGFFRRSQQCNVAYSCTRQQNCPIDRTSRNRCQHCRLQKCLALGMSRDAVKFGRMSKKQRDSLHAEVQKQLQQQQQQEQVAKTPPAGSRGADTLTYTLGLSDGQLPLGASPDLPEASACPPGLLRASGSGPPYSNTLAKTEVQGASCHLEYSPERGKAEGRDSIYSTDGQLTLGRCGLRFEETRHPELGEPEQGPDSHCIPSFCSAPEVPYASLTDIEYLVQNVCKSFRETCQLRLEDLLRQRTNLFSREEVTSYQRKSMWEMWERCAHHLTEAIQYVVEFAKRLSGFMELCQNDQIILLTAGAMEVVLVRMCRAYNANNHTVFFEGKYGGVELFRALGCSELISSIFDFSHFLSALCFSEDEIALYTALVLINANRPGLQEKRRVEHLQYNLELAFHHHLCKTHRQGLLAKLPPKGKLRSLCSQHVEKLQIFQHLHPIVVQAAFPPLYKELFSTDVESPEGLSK

[19] = target: T5, Nuclear receptor ROR-gamma (Mus musculus); assay: Transrepression of RORgammat in Balb/c mouse splenocytes assessed as inhibition of anti-CD3/anti-CD28 stimulated IL-17 gene expression at 3 uM measured after 24 hrs in presence of anti-CD3/anti-CD28; format: cell-based
[20] = target: T5, Nuclear receptor ROR-gamma (Mus musculus); assay: Transrepression of RORgammat in Balb/c mouse splenocytes assessed as inhibition of anti-CD3/anti-CD28 stimulated IL-17 gene expression at 0.3 uM measured after 24 hrs in presence of anti-CD3/anti-CD28; format: cell-based

Cytochrome P450 2C9, sequence (P11712 whole entry): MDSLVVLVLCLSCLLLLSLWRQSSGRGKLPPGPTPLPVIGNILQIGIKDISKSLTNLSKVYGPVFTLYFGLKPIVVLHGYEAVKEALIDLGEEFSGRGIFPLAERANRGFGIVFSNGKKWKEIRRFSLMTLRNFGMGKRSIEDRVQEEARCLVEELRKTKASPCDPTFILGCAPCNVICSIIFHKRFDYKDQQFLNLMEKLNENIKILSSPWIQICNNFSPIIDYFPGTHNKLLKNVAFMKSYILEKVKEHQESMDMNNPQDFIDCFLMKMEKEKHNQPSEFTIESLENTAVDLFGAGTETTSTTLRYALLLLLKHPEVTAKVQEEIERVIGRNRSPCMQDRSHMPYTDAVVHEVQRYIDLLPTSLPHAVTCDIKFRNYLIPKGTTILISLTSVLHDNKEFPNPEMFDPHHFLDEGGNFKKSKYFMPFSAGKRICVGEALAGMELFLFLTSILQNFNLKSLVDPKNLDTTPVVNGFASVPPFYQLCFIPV
Cytochrome P450 2D6, sequence (P10635 whole entry): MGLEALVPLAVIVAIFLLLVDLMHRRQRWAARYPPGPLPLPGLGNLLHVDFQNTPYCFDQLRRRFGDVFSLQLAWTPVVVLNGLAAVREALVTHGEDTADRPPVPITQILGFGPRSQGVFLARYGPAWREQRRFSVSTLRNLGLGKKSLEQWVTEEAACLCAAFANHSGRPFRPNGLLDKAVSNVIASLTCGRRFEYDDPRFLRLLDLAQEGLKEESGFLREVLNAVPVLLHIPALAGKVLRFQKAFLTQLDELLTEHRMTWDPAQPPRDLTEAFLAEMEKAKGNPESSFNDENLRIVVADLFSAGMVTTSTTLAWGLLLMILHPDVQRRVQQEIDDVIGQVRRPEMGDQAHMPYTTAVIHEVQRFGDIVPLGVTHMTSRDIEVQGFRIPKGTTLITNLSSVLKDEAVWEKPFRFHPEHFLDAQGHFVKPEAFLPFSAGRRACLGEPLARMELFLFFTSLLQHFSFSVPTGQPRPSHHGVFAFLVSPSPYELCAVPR
Cytochrome P450 2C19, sequence (P33261 whole entry): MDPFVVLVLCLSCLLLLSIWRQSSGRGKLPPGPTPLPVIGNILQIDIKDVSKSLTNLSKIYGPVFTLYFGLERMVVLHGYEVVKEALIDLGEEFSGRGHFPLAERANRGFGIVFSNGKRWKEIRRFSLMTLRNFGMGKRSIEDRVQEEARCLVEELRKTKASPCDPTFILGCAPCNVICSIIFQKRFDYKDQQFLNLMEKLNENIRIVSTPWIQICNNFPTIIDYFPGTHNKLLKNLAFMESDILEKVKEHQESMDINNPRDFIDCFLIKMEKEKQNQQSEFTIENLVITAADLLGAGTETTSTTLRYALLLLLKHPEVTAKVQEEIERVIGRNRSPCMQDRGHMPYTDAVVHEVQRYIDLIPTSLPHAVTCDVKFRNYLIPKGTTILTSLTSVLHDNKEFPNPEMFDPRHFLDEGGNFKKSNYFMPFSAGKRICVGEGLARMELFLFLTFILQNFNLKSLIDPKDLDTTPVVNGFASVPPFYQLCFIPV
T4 sequence (P08684 whole entry): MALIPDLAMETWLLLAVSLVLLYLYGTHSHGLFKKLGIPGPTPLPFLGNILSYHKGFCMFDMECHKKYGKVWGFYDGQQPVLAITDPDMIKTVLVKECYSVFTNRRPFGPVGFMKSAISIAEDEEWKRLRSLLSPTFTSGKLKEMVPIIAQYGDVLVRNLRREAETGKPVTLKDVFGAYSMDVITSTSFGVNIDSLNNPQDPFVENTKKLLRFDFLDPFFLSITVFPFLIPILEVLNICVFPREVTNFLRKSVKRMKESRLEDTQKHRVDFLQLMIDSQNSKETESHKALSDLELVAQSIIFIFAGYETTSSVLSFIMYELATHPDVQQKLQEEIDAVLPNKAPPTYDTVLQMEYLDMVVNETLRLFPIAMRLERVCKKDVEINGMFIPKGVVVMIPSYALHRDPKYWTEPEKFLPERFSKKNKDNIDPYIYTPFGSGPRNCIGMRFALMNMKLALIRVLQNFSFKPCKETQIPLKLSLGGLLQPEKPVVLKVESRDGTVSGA

O=C(O)c1ccc(-n2cc(C(=O)c3c(Cl)cccc3C(F)(F)F)c3c(F)cccc32)c(F)c1
IC50 [1]: > 30 µM | IC50 (Cytochrome P450 2C9): 20.3 µM | clearance [2]: 4.6 mL/min/kg | remaining at 0.5 h, 1 µM [3]: 76% | remaining at 0.5 h, 1 µM [4]: 78% | Cmax [5]: 17.5 µM | IC50 (Cytochrome P450 2D6): > 50 µM | IC50 (Cytochrome P450 2C19): > 50 µM | IC50 (Cytochrome P450 1A2): > 50 µM | bioavailability [6]: 62% | Vd [7]: 1 L/kg | half-life [8]: 2.7 h | AUC(0-t) at 24 h [9]: 46.5 µM·h | IC50 [10]: 0.016 µM | remaining at 0.5 h, 1 µM [11]: 100% | Tmax [12]: 0.5 h

O=C(O)c1ccc(-n2cc(C(=O)c3c(Cl)cccc3C(F)(F)F)c3cccnc32)c(F)c1
IC50 [1]: > 30 µM | IC50 (Cytochrome P450 2C9): 17.2 µM | clearance [2]: 11 mL/min/kg | IC50 (Cytochrome P450 3A4 [13]): > 50 µM | remaining at 0.5 h, 1 µM [3]: 73% | remaining at 0.5 h, 1 µM [4]: 87% | Cmax [5]: 12.1 µM | IC50 (Cytochrome P450 2D6): > 50 µM | IC50 (Cytochrome P450 2C19): > 50 µM | IC50 (Cytochrome P450 1A2): > 50 µM | bioavailability [6]: 100% | Vd [7]: 2.4 L/kg | half-life [8]: 3.2 h | AUC(0-t) at 24 h [9]: 35.1 µM·h | IC50 [10]: 0.015 µM | remaining at 0.5 h, 1 µM [11]: 100% | Tmax [12]: 0.5 h

Cc1cccc(Cl)c1C(=O)c1cn(-c2ccc(C(=O)O)cc2)c2ccccc12
IC50 [1]: > 30 µM | IC50 (Cytochrome P450 2C9): 13.5 µM | clearance [2]: 9.6 mL/min/kg | solubility [14]: > 2000 µM | solubility [15]: 1 µM (≈ 0.39 µg/mL) | solubility [16]: 1 µM (≈ 0.39 µg/mL) | remaining at 0.5 h, 1 µM [3]: 83% | remaining at 0.5 h, 1 µM [4]: 85% | Cmax [5]: 18.3 µM | IC50 (Cytochrome P450 2D6): > 50 µM | IC50 (Cytochrome P450 3A4 [17]): > 50 µM | IC50 (Cytochrome P450 2C19): > 50 µM | IC50 (Cytochrome P450 1A2): > 50 µM | bioavailability [6]: 45% | Vd [7]: 2.5 L/kg | half-life [8]: 3.2 h | AUC(0-t) at 24 h [9]: 19.6 µM·h | inhibition [18]: 56% | IC50 [10]: 0.025 µM | inhibition [19]: 49% | inhibition [20]: 3% | remaining at 0.5 h, 1 µM [11]: 89% | Tmax [12]: 0.25 h

O=C(O)c1ccc(-n2cc(C(=O)c3c(Cl)cccc3Cl)c3ccccc32)c(F)c1
IC50 [1]: > 30 µM | clearance [2]: 21.2 mL/min/kg | remaining at 0.5 h, 1 µM [3]: 51% | remaining at 0.5 h, 1 µM [4]: 91% | Cmax [5]: 5.7 µM | bioavailability [6]: 52% | Vd [7]: 2.8 L/kg | half-life [8]: 1.8 h | AUC(0-t) at 24 h [9]: 9.1 µM·h | remaining at 0.5 h, 1 µM [11]: 92% | Tmax [12]: 0.5 h
